Key:
iPS cells (253G1) = experiment: WST assay, growth of iPS cells (253G1) in culture medium with β-NMN or NAM; format: cell-based; conditions: for absorbance values at 450 nm (ref. 595 nm), WST assay, compared with basal medium: Example 3, FIG. 3, added to E8 medium
Method: First, iPS cells cultured in the basal medium were separated from a culture vessel by a cell-peeling solution and recovered. The recovered cells were counted and seeded in each well of a Matrigel-coated 96-well plate at 1000 to 2000 cells/well. At this time, a ROCK inhibitor was added to each well. The 96-well plate was cultured at 37° C. for 1 day to allow the cells to adhere, and then the medium containing the ROCK inhibitor was removed from each well, the medium was replaced with a medium obtained by adding, to the basal medium, β-NMN (Oriental Yeast Co., Ltd.) so that a final concentration became 0 to 2 mM, and culturing was performed for 3 to 4 days. Thereafter, a growth ability of cells surviving in each well was measured by water-soluble tetrazolium salts (WST) assay. Specifically, after adding WST-1 (manufactured by Nacalai Tesque) to each well and incubating at 37° C. for 1 to 4 hours, absorbance values at 450 nm (ref. 595 nm) were measured using a microplate reader (manufactured by BMG LABTECH). The term “absorbance value (450 to 595 nm)” is an absorbance value at 450 nm using an absorbance value at 595 nm as a reference value, and is specifically a value obtained by subtracting an absorbance value at 595 nm from an absorbance value at 450 nm. iPS cells were cultured in culture medium containing β-NMN or NAM, and the effects of β-NMN and NAM on growth were compared. As iPS cells, 253G1 line was used. Specifically, iPS cells were cultured and WST assay was performed in the same manner as in Example 1 except that 253G1 line was used instead of 201B7 line.

iPS cells (201B7) [1] = experiment: WST assay, growth of iPS cells (201B7) in culture medium with β-NMN or NAM; format: cell-based, human; conditions: for absorbance values at 450 nm (ref. 595 nm), WST assay, compared with basal medium: Example 2, FIG. 2, 0.2 or 0.4 mM added to E8 medium
Method: As iPS cells, 201B7 line which is human iPS cells was used. For iPS cells, an E8 medium (LTC) containing 19.4 mg/L of insulin, 10.7 mg/L of transferrin, 100 μg/L of bFGF, 2 μg/L of TGFβ, 14 μg/L of sodium selenite, 64 mg/L of ascorbic acid, and 543 mg/L of NaHCO3 in DMEM/F12 was used as the basal medium. First, iPS cells cultured in the basal medium were separated from a culture vessel by a cell-peeling solution and recovered. The recovered cells were counted and seeded in each well of a Matrigel-coated 96-well plate at 1000 to 2000 cells/well. At this time, a ROCK inhibitor was added to each well. The 96-well plate was cultured at 37° C. for 1 day to allow the cells to adhere, and then the medium containing the ROCK inhibitor was removed from each well, the medium was replaced with a medium obtained by adding, to the basal medium, β-NMN (Oriental Yeast Co., Ltd.) so that a final concentration became 0 to 2 mM, and culturing was performed for 3 to 4 days. Thereafter, a growth ability of cells surviving in each well was measured by water-soluble tetrazolium salts (WST) assay. Specifically, after adding WST-1 (manufactured by Nacalai Tesque) to each well and incubating at 37° C. for 1 to 4 hours, absorbance values at 450 nm (ref. 595 nm) were measured using a microplate reader (manufactured by BMG LABTECH). The term “absorbance value (450 to 595 nm)” is an absorbance value at 450 nm using an absorbance value at 595 nm as a reference value, and is specifically a value obtained by subtracting an absorbance value at 595 nm from an absorbance value at 450 nm. Specifically, iPS cells were cultured and the WST assay was performed in the same manner as in Example 1 except that the medium added after removing the medium containing the ROCK inhibitor was changed to a culture medium to which β-NMN was added so that a final concentration became 0, 0.2, or 0.4 mM, or a culture medium to which NAM was added so that a final concentration became 0, 0.2, or 0.4 mM. The iPS cells cultured in the basal medium used in Example 1 were separated from a culture vessel by a cell-peeling solution and recovered. The recovered cells were counted and seeded in each well of a Matrigel-coated 96-well plate at 1000 to 2000 cells/well. At this time, a ROCK inhibitor and β-NMN having a final concentration of 0 to 1 mM were added to each well. The cells in 96-well plate was cultured at 37° C. for 1 day to allow the cells to adhere, and then the medium containing the ROCK inhibitor was removed from each well, the medium was replaced with a culture medium obtained by adding, to the basal medium, β-NMN so that a final concentration became 0 to 1 mM, and culturing was performed for 3 to 4 days. Thereafter, WST assay was performed in the same manner as in Example 1. The results of measuring absorbance values at 450 nm (ref. 595 nm) of each cells cultured in a medium to which both ROCK inhibitor and β-NMN were added are shown in FIG. 4.

[2] = test system: Human mesenchymal stem cells (human MSCs); experiment: WST assay, proliferative activity of human mesenchymal stem cells; format: cell-based; conditions: 72 hours
Method: Human MSCs purchased from Lonza were used. As a basal medium for human MSCs, a dedicated maintenance medium purchased from Lonza was used. Human MSCs were seeded in 96-well plates (Nunc) at 2×10^3 cells/well (n=3 to 4). They were cultured at 37° C. in a CO2 incubator to allow them to adhere, and then β-NMN (manufactured by Oriental Yeast Co., Ltd.) was added so that a final concentration became 1.0, 0.1, 0.01, or 0.001 mM, and culture was further performed at 37° C. in a CO2 incubator for 72 hours. Thereafter, proliferative activity of cells in each well was measured with WST assay. Specifically, after adding a viable cell count reagent SF (Nacalai Tesque) to each well and incubating at 37° C. for 1 to 4 hours, absorbance at 450 nm was measured with the reference wavelength at 620 nm using a microplate reader (absorbance values at 450 nm (ref. 620 nm) (BMG LABTECH). The term “absorbance values at 450 nm (ref. 620 nm)” is an absorbance value at 450 nm using an absorbance value at 620 nm as a reference value, and is specifically a value obtained by subtracting an absorbance value at 620 nm from an absorbance value at 450 nm. [0045]

iPS cells (201B7) [3] = experiment: Alkaline phosphatase measurement test (undifferentiated marker) on iPS cells (201B7); format: cell-based, human; conditions: Example 4, FIG. 5, β-NMN up to 1 mM added with ROCK inhibitor, vs β-NMN-free medium
Method: iPS cells were cultured in a culture medium containing β-NMN, and the effects of β-NMN on differentiation potential and growth were examined. As iPS cells, a 201B7 line was used. The differentiation potential was examined using the enzyme activity of alkaline phosphatase, which is an undifferentiated marker, as an indicator. First, the iPS cells cultured in the basal medium used in Example 1 were separated from a culture vessel by a cell-peeling solution and recovered. The recovered cells were counted and seeded in each well of a Matrigel-coated 96-well plate at 2000 cells/well. At this time, the ROCK inhibitor and β-NMN having a final concentration of 0 to 1 mM were added to each well. The cells in 96-well plate was cultured at 37° C. for 1 day to allow the cells to adhere, and then the medium containing the ROCK inhibitor was removed from each well, the medium was replaced with a medium obtained by adding, to the basal medium, β-NMN so that a final concentration became 0 to 1 mM, and culturing was performed for 3 to 4 days. During this period, the medium was replaced daily. […] After drying the wells, a bicarbonate buffer containing […], which is an alkaline phosphatase measurement reagent, was added and incubated at 37° C. for 30 minutes, and then absorbance at 405 nm was measured using a microplate reader.

iPS cells (201B7) [4] = experiment: Flow cytometry of undifferentiated markers (SSEA4, low sulfated keratan sulfate) in iPS cells (201B7); format: cell-based, human; conditions: 5 or more passages, vs 0 mM
Method: The differentiation potential of iPS cells maintained and grown in the presence of β-NMN was confirmed. As iPS cells, a 201B7 line was used. Specifically, iPS cells were seeded in a 35 mm dish coated with Matrigel (Corning) at 1.5×10^4 cells/dish. As culture medium in which β-NMN was added to a basal medium (E8 medium) of iPS cells so that a final concentration became 0, 0.25, or 1 mM was used. At the time of seeding, Rho-dependent apoptosis was suppressed using a culture medium to which a Rock inhibitor was added so that a final concentration became 10 μM. The medium was replaced daily and the cells were passaged on day 5 and 6. iPS cells cultured for 5 or more passages in the medium to which β-NMN was added were stained with each of antibodies against SSEA4 and against low sulfated keratan sulfate which are undifferentiated markers, and cells expressing the undifferentiated markers were analyzed with a flow cytometer.

In the case of `NC(=O)c1cccnc1` [NAM, nicotinamide, reference compound], the “absorbance values at 450 nm (ref. 595 nm), WST assay, compared with basal medium” value (from here on “absorbance values … compared with basal medium”) (iPS cells (253G1)) is reported as “slightly higher absorbance value than that of the cells cultured in the basal medium” and the “absorbance values … compared with basal medium” value (iPS cells (201B7) [1]) is reported as “higher absorbance values than cells cultured in the basal medium”.

In the case of `NC(=O)c1ccc[n+]([C@@H]2O[C@H](COP(=O)([O-])O)[C@@H](O)[C@H]2O)c1` [β-NMN, β-nicotinamide mononucleotide], the “proliferative activity of human MSCs (absorbance, WST assay), overall” value ([2]; addition of β-NMN 0.001 to 1.0 mM) is reported as “increased the absorbance value and accelerated proliferative activity”, the “Absorbance value at450 nm (ref. 620 nm)” value ([2]; β-NMN concentration 0.001 mM) is reported as 0.573 ± 0.0312 and the “Absorbance value at450 nm (ref. 620 nm)” value ([2]; β-NMN concentration 0.01 mM) is reported as 0.604 ± 0.0587. The “Absorbance value at450 nm (ref. 620 nm)” value ([2]; β-NMN concentration 0.1 mM) was 0.634 ± 0.0411, the “Absorbance value at450 nm (ref. 620 nm)” value ([2]; β-NMN concentration 1 mM) was 0.615 ± 0.0340 and the “absorbance values at 405 nm, alkaline phosphatase measurement test” value (iPS cells (201B7) [3]) was “higher than that of the cells cultured in the β-NMN-free medium”. The “absorbance values … compared with basal medium” value (iPS cells (253G1)) was “higher absorbance value than that of the cell cultured in the basal medium”, the “absorbance values at 450 nm (ref. 595 nm), WST assay, β-NMN-added medium compared with NAM-added medium” value (iPS cells (253G1); Example 3, FIG. 3, final concentration 0.2 mM and 0.4 mM) was “significantly higher than that of the cells cultured in the NAM-added medium” and the “Expression of SSEA4 (flow cytometry, anti-SSEA4 antibody)” value (iPS cells (201B7) [4]; Example 6, FIGS. 6 to 8, 0.25 mM or 1 mM of β-NMN) was “maintained”. The “Expression of low sulfated keratan sulfate (flow cytometry, R10G antibody)” value (iPS cells (201B7) [4]; Example 6, FIGS. 9 to 11, 0.25 mM or 1 mM of β-NMN) was “maintained”, the “absorbance values at 450 nm (ref. 595 nm), WST assay” value (iPS cells (201B7) [1]; Example 1, FIG. 1, medium containing 0.1 mM or more of β-NMN vs β-NMN-free medium, 3 to 4 days) was “greater than that of the cells cultured in the β-NMN-free medium” and the “absorbance values at 450 nm (ref. 595 nm), WST assay” value (iPS cells (201B7) [1]; Example 1, FIG. 1, β-NMN 0.8 mM or more) was “tended to slightly decrease”. For the same molecule, the “absorbance values at 450 nm (ref. 595 nm), WST assay” value (iPS cells (201B7) [1]; Example 1, FIG. 1, β-NMN 0.1 to 0.2 mM) was “increased in a concentration-dependent manner”, the “absorbance values at 450 nm (ref. 595 nm), WST assay” value (iPS cells (201B7) [1]; Example 1, FIG. 1, β-NMN 0.2 to 0.6 mM) was “the absorbance value was the same” and the “absorbance values … compared with basal medium” value (iPS cells (201B7) [1]) was “higher absorbance values than cells cultured in the basal medium”. For the same molecule, the “absorbance values at 450 nm (ref. 595 nm), WST assay, β-NMN-added medium compared with NAM-added medium” value (iPS cells (201B7) [1]; Example 2, FIG. 2, final concentration 0.2 mM and 0.4 mM) was “significantly higher than that of the cells cultured in the NAM-added medium” and the “absorbance values at 450 nm (ref. 595 nm), WST assay (effect on growth)” value (iPS cells (201B7) [1]; Example 4, FIG. 4, β-NMN 0 to 1 mM added together with ROCK inhibitor at seeding and afterwards) was “growth-accelerating effect on iPS cells was obtained in a β-NMN concentration-dependent manner”.

From patent publication US12331322B2, “Agent for accelerating growth of pluripotent stem cells” (Oriental Yeast Co., Ltd., priority 2017, dated 2025)
